Structures can show the parent of a compound that is named as a salt.

Take `Cl.O=S(=O)(c1ccccc1)c1ccc2[nH]c3c(c2c1)CCNCC3`: the melting point is 290 to 291.5 °C.

`Cl.Cn1c2c(c3cc(S(=O)(=O)c4ccccc4)ccc31)CCNCC2`: the melting point is > 300 °C.

As for `Cl.O=S(=O)(c1ccc(F)c(F)c1)c1ccc2[nH]c3c(c2c1)CCNCC3`, the melting point is 320 °C (dec.).

Regarding `Cl.O=S(=O)(c1cc(F)cc(F)c1)c1ccc2[nH]c3c(c2c1)CCNCC3`, the melting point is 313 to 315 °C (dec.).

As to `Cl.Cn1c2c(c3cc(S(=O)(=O)c4cc(F)cc(F)c4)ccc31)CCNCC2`, the melting point was 337 to 340 °C (dec.).

`CN1CCc2[nH]c3ccc(S(=O)(=O)c4ccccc4)cc3c2CC1`: the melting point was 150 °C (dec.).

Consider `COc1cccc(S(=O)(=O)c2ccc3[nH]c4c(c3c2)CCNCC4)c1.Cl`, for which the melting point was 232 to 235 °C (dec.).

For `Cl.O=S(=O)(c1ccc(C(F)(F)F)cc1)c1ccc2[nH]c3c(c2c1)CCNCC3`, the melting point was 278 to 279 °C (dec.).

For the compound `CCn1c2c(c3cc(S(=O)(=O)c4ccc(F)cc4)ccc31)CCNCC2.Cl`, the melting point is 227 to 233 °C (dec.).

In the case of `Cn1c2c(c3cc(S(=O)(=O)c4ccc(OCCO)cc4)ccc31)CCNCC2` (as salt: hydrochloride) [Example 17, 9-[(4-(2-Hydroxyethoxy)phenyl)sulfonyl]-6-methyl-1,2,3,4,5,6-hexahydroazepino[4,5-b]indole hydrochloride], the melting point is 285 to 287 °C (dec.).

In the case of `O=S(=O)(c1ccc(F)cc1)c1ccc2[nH]c3c(c2c1)CCNCC3` [Example 2, 9-[(4-Fluorophenyl)sulfonyl]-1,2,3,4,5,6-hexahydroazepino[4,5-b]indole], the melting point was 168 °C (dec.).

Turning to `Cc1ccc(S(=O)(=O)c2ccc3[nH]c4c(c3c2)CCNCC4)cc1` [Example 3, 9-[(4-Methylphenyl)sulfonyl]-1,2,3,4,5,6-hexahydroazepino[4,5-b]indole], the melting point was 125 °C (dec.).

In the case of `COc1ccc(S(=O)(=O)c2ccc3[nH]c4c(c3c2)CCNCC4)cc1` [Example 4, 9-[(4-Methoxyphenyl)sulfonyl]-1,2,3,4,5,6-hexahydroazepino[4,5-b]indole], the melting point is 139 °C (dec.).

`O=S(=O)(c1cccc(F)c1)c1ccc2[nH]c3c(c2c1)CCNCC3` [Example 5, 9-[(3-Fluorophenyl)sulfonyl]-1,2,3,4,5,6-hexahydroazepino[4,5-b]indole] had a melting point of 153 to 156 °C.

For the compound `CCn1c2c(c3cc(S(=O)(=O)c4ccccc4)ccc31)CCNCC2` [Example 8, 6-Ethyl-9-(phenylsulfonyl)-1,2,3,4,5,6-hexahydroazepino[4,5-b]indole], the melting point is 224 °C (dec.).

The compound `CN1CCc2c(n(C)c3ccc(S(=O)(=O)c4ccccc4)cc23)CC1` [Example 18, 3,6-Dimethyl-9-(phenylsulfonyl)-1,2,3,4,5,6-hexahydroazepino[4,5-b]indole] came in with a melting point of 283 to 286 °C.

Regarding `CC(C)N1CCc2c(n(C)c3ccc(S(=O)(=O)c4ccc(F)cc4)cc23)CC1` [Example 20, 9-[(4-fluorophenyl)sulfonyl]-3-isopropyl-6-methyl-1,2,3,4,5,6-hexahydroazepino[4,5-b]indole], the melting point is 282 to 283 °C (dec.).

The term melting point denotes the temperature, or range, at which the solid turns liquid.

The values above are taken from patent US20040248880A1, “1,2,3,4,5,6-Hexahydroazepino[4,5-B]indoles containing arylsulfones at the 9-position” (priority 2003, published 2004).
